A melting point compilation (Tetko et al.; mined from patent text by program, amines drawn as free bases though some values may be those of a salt)
Non-standard residues stand in square brackets, D forms with d. Residues, ends and D or L forms follow the SMILES beside them. ξ: configuration not given here. *: point of attachment. Boc = CC(C)(C)OC(=O)*; ξA = CC(N)C(=O)O

| Compound | melting point |
| --- | --- |
| O=C(O)c1ccccc1S(=O)(=O)c1cc(Cl)ccc1C(=O)O | 276 to 277 °C |
| O=c1nc(N2CCc3ccccc32)sc2ncccc12 | 249 to 250 °C |
| O=c1[nH]c2cc(Cl)ccc2n1CCCN1CCC(O)(c2ccc(Cl)cc2)CC1 | 191 °C |
| Cc1cc(C#N)sc1Br | 40 to 42 °C |
| COc1ccc(CNC(=O)Nc2ccc(CN3C(=O)[C@H]4CCC[C@H]4N(C(=O)CN4C(=O)c5ccccc5C4=O)c4ccccc43)cc2)cc1 (relative stereo) | 156 to 158 °C |
| Nc1cccc(Cl)c1-c1nc(-c2ccncc2)c(-c2ccc(Cl)cc2)[nH]1 | 220 to 222 °C |
| COc1ccc(-c2cc(=O)n(Cc3cccnc3)nc2-c2ccc(OC)cc2)cc1 | 167 to 168 °C |
| c1ccc(OCCSCc2nnc(-c3ccc(OCCCCN4CCCCC4)cc3)o2)cc1 | 57 to 62 °C |
| Cc1cccc(C)c1NC(=O)NC1CC(C)(C)c2ccccc2C1(C)C (stereo not drawn) | 216 to 218 °C |
| COc1ccc(CONC(=O)c2nc(-c3ccc(Cl)c(OC)c3F)cc(N)c2Cl)cc1 | 142 to 145 °C |
| CS(=O)(=O)Nc1cccc2c1CCC[C@H]2c1c[nH]cn1 | 118 to 123 °C |
| Cc1c(C)c2c(c(C)c1NCc1ccc3c(c1)OCO3)C(c1ccc(C(C)C)cc1)C(C)(C)O2 (stereo not drawn) | 100 to 102 °C |
| COc1cccc(CSCCNC(=O)c2c(OC)cccc2OC)c1 | 41 to 43 °C |
| CC(C)CCCC(C)Cc1cncn1Cc1ccccc1 (stereo not drawn) | 61 to 62 °C |
| O=c1ccn(-c2cccc(C(F)(F)F)c2)nc1-c1ccn[nH]1 | 192 to 194 °C |
| CC(Nc1nc2ccc(Cl)cc2cc1C(=O)O)C(=O)O (stereo not drawn) | 178 to 190 °C |
| COc1cccc2c3c(c(=O)[nH]c12)CCN3c1ccccc1C | 166 to 168 °C |
| C=CCn1c(=O)c2c(nc(/C=C/c3ccc(O)c(OC)c3)n2C)n(CC=C)c1=O | 202 to 203 °C |
| COC(=O)NC1=NCC(c2ccccc2)N1C (stereo not drawn) | 145 to 147 °C |
| CN1CCN(c2cccc3c2C[C@H](NC(=O)c2ccc(C4CCCCC4)cc2)CC3)CC1 | 224 to 226 °C |
| CC(=O)NNc1ccc(N=C=S)cc1 | 172 to 174 °C |
| COCCOc1cc2ncnc(Oc3ccc(Cl)cc3F)c2cc1OC | 167 to 168 °C |
| Cc1cc(Cl)cc(C(=O)Nc2cccc(F)c2)n1 | 123 °C |
| CCCn1cc2c(C3C(=O)Nc4ccc(C#N)cc43)nc(NCc3ccncc3)nc2n1 (stereo not drawn) | 299 to 302 °C |
| Nc1nc(C(=O)O)c(-c2ccncc2)s1 | 211 °C |

| Compound | melting point |
| --- | --- |
| CCNC(=O)NCCNc1nc(-c2ccc(F)cc2C)c2ccc(=O)n(-c3c(F)cccc3F)c2n1 | 130 to 133 °C |
| COc1cc(C(=O)NS(=O)(=O)c2ccccc2)ccc1CN1CCOc2ccc(NC(=O)OC3CCCC3)cc21 | 186 to 187 °C |
| CC(C)(C)OC(=O)N(CC(=O)O)Cc1ccccc1 | 94 to 97 °C |
| COc1cccc2c(C(=O)c3ccc(OC4CCCCC4N4CCCCC4)cc3)c(-c3ccc(OCCN4CCCC4)cc3)sc12 (stereo not drawn) | 66 to 69 °C |
| CC(=O)c1cc(N2CCCC2)ccc1NC(=O)c1ccc(OCc2ccccc2)cc1 | 175 to 178 °C |
| COc1ccc(C(=O)c2ccc3c(c2)CC(C(=O)O)C3)cc1 (stereo not drawn) | 149 to 151 °C |
| CCOCc1cc(OC)c(-c2ccc(C[C@H](NC(=O)c3c(Cl)cccc3Cl)C(=O)O)cc2)c(OC)c1 | 196 to 198 °C |
| CS(=O)(=O)c1ccc(-c2nc(-c3cc4ccccc4o3)[nH]c2-c2ccc(F)cc2)cc1 | 235 to 237 °C |
| O=C1NC(O)c2cccn2-c2sccc21 (stereo not drawn) | 166 °C |
| CCOC(=O)N1CCc2nc3c(Cl)cccc3c(C)c2CC1 | 169 °C |
| O=c1c(CCCCc2ccccn2)cc2cccnc2n1-c1cccc([N+](=O)[O-])c1 | 163 to 165 °C |
| CS(=O)(=O)c1c(C(=O)O)ccc(Cl)c1F | 208 to 209 °C |
| CCc1c(Sc2cc(C)cc(C)c2)n(CC2=CC(CO)C(CO)C2)c(=O)[nH]c1=O (stereo not drawn) | 156 to 157 °C |
| CCOC(=O)c1cn2c3c(c(F)c(F)cc3c1=O)CCC2CO (stereo not drawn) | 256 to 258 °C |
| Cc1cccc(COc2cccc(OCc3cc(=O)c4ccccc4n3C)c2)c1OCC(=O)O | 192 to 194 °C |
| N#CCc1ccc(NS(=O)(=O)c2cccc(Cl)c2Cl)cc1 | 202 to 206 °C |
| Cc1ccc(S(=O)(=O)N(CCBr)c2ccc(Cl)cc2[N+](=O)[O-])cc1 | 70 to 72 °C |
| CN(C)C(=O)c1ccc([N+](=O)[O-])cc1S(=O)(=O)Cl | 129 to 131 °C |
| CCOC(=O)CN1C(=O)CSC1=Nc1cc(-n2c(=O)cc(C(F)(F)F)n(C)c2=O)c(F)cc1Cl | 67 to 87 °C |
| CNc1ccc(S(=O)(=O)Nc2ccccc2)cc1 | 113 to 114 °C |
| CCOc1ccc(-n2nnnc2C(F)(F)F)cc1C=O | 87.9 to 88.4 °C |
| Cn1nc(-c2ccc3c(c2)OCO3)c(-c2ccncc2)c1NC(=O)Cc1ccccc1 | 128 to 132 °C |
| CC(C)C(=O)Nc1ccc(OCC(O)CNC(C)(C)C)c(C#N)c1 (stereo not drawn) | 118 to 121 °C |
| CCc1cc(OCc2ccc(-c3ccccc3C#N)cc2)c2ccccc2n1 | 151 to 153 °C |
| CC(C)NC1=NS(=O)(=O)c2ccc(CC(N)=O)cc2N1 | 321 to 325 °C |

| Compound | melting point |
| --- | --- |
| O=C1N(Cc2cc3cccc(F)c3o2)c2ccccc2C12COc1cc3c(cc12)CCO3 (stereo not drawn) | 192 to 193 °C |
| CSc1cc2c(cc1C(F)(F)F)N(C(=O)Nc1cccc(C(=O)N(C)CCN(C)C)c1)CC2 | 140 to 141 °C |
| CCCCOc1c(CNC(=O)OCC2c3ccccc3-c3ccccc32)n(CC(C)C)c(=O)c2ccc(-c3nc(C(=O)OCC)cs3)cc12 | 203 to 204 °C |
| CCc1c(C)c2c(OC)cc(-c3ccc(C(C)C)cc3)cc2oc1=O | 115 °C |
| COc1cc2c(cc1OC)C(C(S)(C#N)CC(=O)O)=NCC2 (stereo not drawn) | 173 to 175 °C |
| O=Cc1ccc(OC2CCCC2)c(O)c1 | 87 to 89 °C |
| O=C(Nc1cc(S(=O)(=O)NC(CO)CO)sc1Cl)c1cnn2c(C(F)(F)F)cc(-c3ccc(C(F)(F)F)cc3)nc12 | 225 °C |
| COc1cccc2ocnc12 | 72 to 74 °C |
| Cc1cccc(C(=O)N(NC(C)C)C(C)(C)C)c1 | 107 to 109 °C |
| CCCCCCCC=C1SC(=S)N(N=c2sc3ccccc3s2)C1=O | 185 °C |
| COC(=O)Cc1csc2c(O)cccc12 | 147 to 148 °C |
| CC(=O)NC[C@H]1CN(c2ccc(N3CCC(O)(CN=[N+]=[N-])CC3)cc2)C(=O)O1 | 134 to 136 °C |
| COc1ccccc1N1CCc2c(C)nc3c(OC)cccc3c21 | 168 to 169 °C |
| O=c1[nH]ncc2[nH]c(-c3ccc(OC(F)F)c(OC4CC4)c3)c(-c3ccccc3)c12 | 138 to 143 °C |
| CCSc1cnc(OCCOc2ncnc(NS(=O)(=O)c3ccc(C(C)(C)C)cc3)c2-c2ccc(C)cc2)nc1 | 177 to 178 °C |
| CC(=O)NCC1=C(n2ccccc2=O)c2cc(C(F)(F)F)ccc2OC1(C)C | 174 °C |
| O=C(Nc1cccc2cc(Br)cnc12)c1ccc(O)c(O)c1O | 183 to 193 °C |
| COc1c(/C=C/c2ccc(C(=O)O)cc2)c(C)cc2c1C(C)(C)CCC2(C)C | 222 to 223 °C |
| C[C@@H]1NC(=O)[C@H]2Cc3c([nH]c4ccccc34)[C@@H](c3ccc4occc4c3)N2C1=O | 150 to 151 °C |
| c1cc2c(ccc3[nH]c4c(c32)CNCC4)s1 | 190 °C |
| CN(C)c1ccc(C=CC(=O)c2ccc(OCCO)cc2)cc1 | 127 to 128 °C |
| CCCCOc1ccc(C(=O)Nc2ccc3ccc(Cl)nc3n2)cc1 | 140 °C |
| C=C(c1ccc(I)cc1)C(O)(Cn1cncn1)c1ccccc1F (stereo not drawn) | 117 to 118 °C |
| COc1ccccc1NS(=O)(=O)c1ccc([N+](=O)[O-])cc1[N+](=O)[O-] | 172 to 173 °C |
| CN1C(=O)NC(N)C1=O (stereo not drawn) | 122 to 125 °C |

| Compound | melting point |
| --- | --- |
| CCOC(=O)C(C)ON1CCNC1=Nc1c(Cl)cccc1Cl (stereo not drawn) | 79 to 80 °C |
| Cc1ccc(NC(=O)c2cc(Cl)ccc2NCC2CCN(C3CCOCC3)CC2)nc1 | 166 to 168 °C |
| CC1Cc2c(N)c(Cl)cc(C(=O)NCCC34CCCN3CCC4)c2O1 (stereo not drawn) | 127 to 129 °C |
| CN(C)CCC(CCO)c1ccncc1 (stereo not drawn) | 26 °C |
| CC1CN(c2cccc(Cl)n2)N=C1N (stereo not drawn) | 175 to 176 °C |
| OC1CCCc2cc(F)cc(F)c21 (stereo not drawn) | 102 to 103 °C |
| COC(=O)c1ccc(C)c(-n2c(C)cc(OCc3ccc(F)cc3CNC(=O)Nc3cc(C(C)(C)C)nn3-c3ccc(O)cc3)c(Cl)c2=O)c1 | 188 to 190 °C |
| CCCCc1nc(Cl)c(COC)n1Cc1ccc(-c2ccccc2Cc2nnn[nH]2)cc1 | 149 to 152 °C |
| COC(=O)CNC(=O)C(C)NC(=O)CNC(=O)OC(C)(C)C (stereo not drawn) (Boc-Gly-[ξA]-Gly-OMe) | 98 to 100 °C |
| N#Cc1ccc(C(=O)N2CCN(c3ccncc3)CC2)cc1 | 164 to 165 °C |
| COP(=O)(Cc1ccc(-c2nc3ccccc3s2)nc1)OC | 152 °C |
| Cn1ccc(=O)c2ccc(F)cc21 | 146 to 149 °C |
| CCOC(=O)CCCNCc1nn2c(-c3ccc(OC)cc3)nnc2c2ccccc12 | 103 to 105 °C |
| N#CCCn1c2ccc(O)cc2c2c3c(c(-c4ccccc4Cl)cc21)C(=O)NC3=O | 332 to 336 °C |
| O=C(Nc1cccc(-c2ncnc3[nH]c(-c4ccncc4)cc23)c1)c1cccc(C(F)(F)F)c1 | > 280 °C |
| COC(CN1C(=O)CN=C(c2ccccc2)c2cc(Cl)ccc21)OC | 117 to 119 °C |
| N#CC(C#N)(CCCSC(F)(F)F)CC(F)(F)C(F)(F)C(F)(F)C(F)(F)C(F)(F)F | 88 to 90 °C |
| Cc1ccc(S(=O)(=O)N2CC[C@@H](O)C2)cc1 | 108 to 112 °C |
| CCNC(=O)c1ccc(C=C(C)c2ccc3c(c2)C(C)(C)CCO3)cc1 | 161 to 163 °C |
| O=S(=O)(Nc1ccc(Cl)cc1Oc1ccc(Cl)cc1Cl)C(F)(F)F | 97 to 98 °C |
| CC(=O)NC(=O)C(Cl)C(C)=O (stereo not drawn) | 54 to 58 °C |
| NC(c1ccccc1)c1ccc(OCCCOc2ccc(C(N)c3ccccc3)cc2)cc1 (stereo not drawn) | 118 to 119 °C |
| O=C(NCc1ccc(Cl)cc1)c1cnc2cccc(O)c2c1O | 235 to 238 °C |
